Patent publication US6780871B2, “Methods and compositions for treating addiction disorders” (Albany Medical College, priority 2001, dated 2004)

Assays:
Format in all cases: in vivo, rat
[1] = system: morphine self-administration; assay: intravenous morphine self-administration; settings: 18-methoxycoronaridine 1 mg/kg i.p., dextromethorphan 5 mg/kg s.c.
Description: Dextromethorphan hydrobromide (5 mg/kg; Sigma/RBI, St. Louis, Mo.) was dissolved in saline and injected subcutaneously 20 minutes before testing. Mecamylamine hydrochloride (1 mg/kg; Sigma/RBI, St. Louis, Mo.) was dissolved in physiological saline and injected intraperitoneally 30 minutes before testing. All rats received two injections. For rats that received a single drug, half of them also received the appropriate saline/vehicle injection corresponding to each of the other two drugs.
Naive female Long-Evans derived rats (250 g; Charles River, N.Y.) were maintained on a normal 12 h light cycle (lights on at 7:00 a.m., lights off at 7:00 p.m.). For all experiments the “Principles of Laboratory Animal Care” (NIH publication No. 85-23, revised 1985, which is hereby incorporated by reference) were followed.
The intravenous self-administration procedure described in Glick et al., “18-MC Reduces Methamphetamine and Nicotine Self-administration in Rats,” NeuroReport 11:2013-2015 (2000) (“Glick I”), which is hereby incorporated by reference, was employed. Briefly, responses on either of two levers (mounted 15 cm apart on the front wall of each operant test cage) were recorded on an IBM compatible computer with a Med Associates, Inc. interface. The intravenous self-administration system consisted of polyethylene-silicone cannulas constructed according to the design of Weeks, “Long-term Intravenous Infusion,” pp. 155-168 in Myers (ed.), Methods in Psychobiology, Vol. 2, New York: Academic Press (1972) (“Weeks”), which is hereby incorporated by reference; Instech harnesses and swivels; and Harvard Apparatus infusion pumps (#55-2222). Shaping of the bar-press response was initially accomplished by training rats to bar-press for water. Cannulas were then implanted in the external jugular vein according to procedures described in Weeks, which is hereby incorporated by reference. Self-administration testing began with a 16-h nocturnal session followed by daily 1-h sessions, 5 days (Monday-Friday) a week. A lever-press response produced a 10 μl infusion of drug solution (0.01 mg of morphine sulfate) in about 0.2 s or a 50 μl infusion of drug solution (0.025 mg of methamphetamine sulfate) in about 1 s. Since all rats generally weighed 250±20 g, each response delivered approximately 0.04 mg/kg of morphine or 0.1 mg/kg of methamphetamine. Experiments to assess the effects of experimental treatments were begun when baseline self-administration rates stabilized (≦10% variation from one day to the next across 5 days), usually after 2 weeks of testing.
Each data point represents the mean (±S.E.M.) percent of baseline of 6-8 rats. Significant differences between baseline and treatment are indicated by an asterisk (paired t-test, P<0.01-0.001).
Each data point represents the mean (±S.E.M.) percent of baseline of 5-8 rats. Significant differences between baseline and treatment are indicated by an asterisk (paired t-test), P<0.05-0.01).

[2] = system: methamphetamine self-administration; assay: intravenous methamphetamine self-administration
[3] = system: nicotine self-administration; assay: nicotine self-administration; settings: Example 7, FIGS. 11-12: mecamylamine 0.1 mg/kg i.p., 18-methoxycoronaridine 0.5 mg/kg i.p., dextromethorphan 0.5 mg/kg s.c., bupropion 5 mg/kg i.p.; 5-8 rats
[4] = Example 6, FIG. 8: mecamylamine 1 mg/kg i.p., bupropion 5 mg/kg i.p., 5-8 rats
[5] = Example 6, FIG. 9: mecamylamine 1 mg/kg i.p., 18-methoxycoronaridine 5 mg/kg i.p., dextromethorphan 10 mg/kg s.c., bupropion 10 mg/kg i.p., 5-9 rats

Structure (SMILES) | effect on morphine self-administration (percent of baseline) [1, 4] | effect on methamphetamine self-administration (percent of baseline) [2, 5] | effect on nicotine self-administration (percent of baseline) [3] | effect on morphine self-administration (percent of baseline) ([1]; Example 5, FIG. 5: mecamylamine 1 mg/kg i.p., 6-8 rats) | effect on methamphetamine self-administration (percent of baseline) ([2]; Example 5, FIG. 6: mecamylamine 1 mg/kg i.p., 18-methoxycoronaridine 2 mg/kg i.p., dextromethorphan 5 mg/kg s.c., 6-7 rats)
CC(NC(C)(C)C)C(=O)c1cccc(Cl)c1 (stereo not drawn) [bupropion, m-chloro-α-tert-butylaminopropiophenone] | none of the drugs administered alone, significantly decreased | none of the drugs administered alone, significantly decreased | none of the drugs administered alone, significantly decreased | – | –
COc1ccc2c(c1)[C@]13CCCC[C@@H]1[C@H](C2)N(C)CC3 [dextromethorphan] | none of the drugs administered alone, significantly decreased | none of the drugs administered alone, significantly decreased | none of the drugs administered alone, significantly decreased | none of the drugs administered alone, significantly decreased | none of the drugs administered alone, significantly decreased
